# Test results taken from paper PMC10845145, “Synergistic Effect of Brevetoxin BTX-3 and Ciguatoxin CTX3C in Human Voltage-Gated Nav1.6 Sodium Channels” (Chemical Research in Toxicology, 2023).
# Like-named read-outs stand apart in the source and are kept apart here.
# Experiments:
# [1] = target: rat brain sodium channels; settings: cited from earlier work; for Ki: binding affinity to rat brain sodium channels, read-out: inhibitory constant (ki)
# [2] = target: T1, human Nav1.6 voltage-gated sodium channels (Homo sapiens, UniProt Q9UQD0); assay: Whole-cell patch-clamp recording of sodium current activation (peak INa, activation voltage) in HEK293 cells transfected with Nav1.6; assay type: cell-based; settings: for +10 nM BTX-3 normalized INa (max) / normalized INa (max): control = –1; for normalized INa (max): CTX3C alone; for shift in the activation voltage for CTX3C: vs control
# T1 construct: host or cells: HEK293
# Procedure: (§1) The human embryonic kidney cell line (HEK293) transfected with the α subunit of the Nav1.6 sodium channel isoform was kindly provided, under a material transfer agreement, by GlaxoSmithKline R&D (Stevenage, U.K). The cells were cultured in Dulbecco’s modified Eagle’s medium (DMEM)/F12 medium enriched with glutamax, nonessential amino acid solution (MEM, Gibco, 1% w/v), 10% fetal bovine serum, and 0.4 mg/mL Geneticin (G418, Gibco) and maintained at 37 °C in a humidified 95% […]/5% CO2 atmosphere until they reached 80% of confluence, replacing the medium every 2 days. The cells were subcultured in 12-well plates in glass coverslips at a density of 60,000 cells/mL. Twenty-four or 48 h before electrophysiological recordings, the cells were placed at 30 °C to maximize sodium channel expression.[32]
# (§2) For electrophysiological recordings, glass coverslips with cells were placed in a recording chamber with 0.5 mL Lockés buffer as the extracellular solution. Recording electrodes were fabricated with borosilicate glass microcapillaries (1.5 outer diameter) and had resistances ranging from 4 to 10 MΩ. Pipettes were filled with an intracellular solution containing 120 mM CsF, 10 mM EGTA, 10 mM HEPES, and 15 mM NaCl and pH adjusted to 7.25 with CsOH. Voltage-gated sodium currents were recorded at room temperature 5 min after reaching the whole-cell configuration with a Multiclamp 700B amplifier and digitalized with the Digidata 1440A (both from Axon Instruments, California, U.S.A.) maintaining the cells at a holding potential (Vhold) of −55 mV. Signals were sampled at 50 kHz after low-pass Bessel filtering at 10 kHz. Compensation circuitry was used to reduce the series resistance by at least 70%. To record the activation of VGSCs, voltage steps from −80 to +80 mV in 10 mV step increments were applied prior to a test pulse of −90 mV. Fast inactivation was measured at 0 mV after prior test pulses of 300 ms duration ranging from −100 to 0 mV in 10 mV voltage step increments after maintaining the holding potential at −90 mV during 10 ms.
# (§3) All data are expressed as means ± SEMs of n determinations. Data analysis was performed using GraphPad Prism 8. Statistical comparisons were performed using one-way analysis of variance (ANOVA), followed by post hoc Dunnett̀s tests. p values ≤ 0.05 were considered statistically significant, and IC50 values were determined by fitting the data with a log (inhibitor) vs normalized response model.
# (§4) The combination index (CI) was calculated with the Chou–Talalay equation[33] following the formula [drawing 1] 1 where (DX)1 is the IC50 value of CTX3C alone, (DX)2 the IC50 value of BTX-3 alone, and D1 and D2 are the IC50 values of CTX3C and BTX-3, respectively, in combination. According to the Chou–Talalay method, additivity is established if CI = 1, synergism if CI < 1, and antagonism if CI > 1.
# [3] = target: T1, human Nav1.6 voltage-gated sodium channels; assay: Whole-cell patch-clamp recording of fast inactivation of sodium channels in HEK293 cells transfected with Nav1.6; assay type: cell-based; settings: for IC50: read-out: IC50, hyperpolarizing shift in the inactivation voltage
# Procedure: as §1, §2, §3, §4
# T1 sequence (Q9UQD0 whole entry): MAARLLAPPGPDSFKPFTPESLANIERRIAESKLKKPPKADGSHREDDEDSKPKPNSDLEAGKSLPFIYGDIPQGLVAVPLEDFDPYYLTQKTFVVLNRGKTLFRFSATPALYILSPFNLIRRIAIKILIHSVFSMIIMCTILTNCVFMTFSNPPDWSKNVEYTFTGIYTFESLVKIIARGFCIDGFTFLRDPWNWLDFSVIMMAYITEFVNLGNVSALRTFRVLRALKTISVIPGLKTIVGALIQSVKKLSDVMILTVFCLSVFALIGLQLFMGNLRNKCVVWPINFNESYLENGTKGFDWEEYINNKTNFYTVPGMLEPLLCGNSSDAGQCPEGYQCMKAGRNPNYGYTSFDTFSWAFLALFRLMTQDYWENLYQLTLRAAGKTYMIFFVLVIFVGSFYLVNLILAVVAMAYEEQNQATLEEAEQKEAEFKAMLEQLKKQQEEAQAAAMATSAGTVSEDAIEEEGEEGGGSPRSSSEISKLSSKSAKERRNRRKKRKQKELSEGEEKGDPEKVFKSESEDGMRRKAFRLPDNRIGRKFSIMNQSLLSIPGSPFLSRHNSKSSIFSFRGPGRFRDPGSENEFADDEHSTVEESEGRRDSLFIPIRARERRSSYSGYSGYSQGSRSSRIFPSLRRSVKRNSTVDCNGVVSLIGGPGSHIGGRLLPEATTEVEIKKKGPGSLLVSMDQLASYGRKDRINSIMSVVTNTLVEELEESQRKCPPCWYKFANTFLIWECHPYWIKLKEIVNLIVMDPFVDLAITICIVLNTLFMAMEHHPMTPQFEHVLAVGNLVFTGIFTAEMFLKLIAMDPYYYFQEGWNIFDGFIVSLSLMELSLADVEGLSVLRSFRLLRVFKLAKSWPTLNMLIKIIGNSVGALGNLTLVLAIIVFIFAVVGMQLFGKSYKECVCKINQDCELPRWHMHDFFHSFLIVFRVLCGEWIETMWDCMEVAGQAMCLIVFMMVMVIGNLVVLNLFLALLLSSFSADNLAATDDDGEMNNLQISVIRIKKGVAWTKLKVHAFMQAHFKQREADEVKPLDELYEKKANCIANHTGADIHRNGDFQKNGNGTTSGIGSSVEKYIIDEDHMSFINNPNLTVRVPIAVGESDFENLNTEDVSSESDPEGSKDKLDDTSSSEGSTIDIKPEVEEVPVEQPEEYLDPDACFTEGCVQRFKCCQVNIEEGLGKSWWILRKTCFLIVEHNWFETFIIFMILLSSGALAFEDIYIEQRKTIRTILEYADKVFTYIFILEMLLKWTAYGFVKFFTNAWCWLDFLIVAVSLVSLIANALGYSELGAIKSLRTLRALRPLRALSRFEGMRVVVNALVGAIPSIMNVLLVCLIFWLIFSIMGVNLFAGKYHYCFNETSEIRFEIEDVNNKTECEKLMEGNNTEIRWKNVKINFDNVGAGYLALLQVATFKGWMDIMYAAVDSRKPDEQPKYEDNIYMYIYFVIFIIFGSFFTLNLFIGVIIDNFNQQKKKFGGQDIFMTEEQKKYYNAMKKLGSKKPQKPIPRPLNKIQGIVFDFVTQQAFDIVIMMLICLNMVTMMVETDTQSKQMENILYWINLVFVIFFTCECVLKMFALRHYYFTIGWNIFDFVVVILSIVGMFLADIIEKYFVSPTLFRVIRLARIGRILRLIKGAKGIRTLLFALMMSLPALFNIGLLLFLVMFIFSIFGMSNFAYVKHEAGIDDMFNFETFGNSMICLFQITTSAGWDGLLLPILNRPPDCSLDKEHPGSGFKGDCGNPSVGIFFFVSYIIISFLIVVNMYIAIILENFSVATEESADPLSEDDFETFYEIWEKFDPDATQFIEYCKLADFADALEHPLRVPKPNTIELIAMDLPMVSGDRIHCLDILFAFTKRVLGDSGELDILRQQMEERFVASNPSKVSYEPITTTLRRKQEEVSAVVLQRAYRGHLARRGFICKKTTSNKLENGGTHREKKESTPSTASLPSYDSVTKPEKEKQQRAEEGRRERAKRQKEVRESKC
smiles,measurement,setting,value
C[C@@H]1C[C@@H]2O[C@@H]3[C@@H](C)[C@H](O)[C@@H]4O[C@]5(C[C@H](O)CO5)[C@@H](C)[C@H](C)[C@H]4O[C@H]3C[C@H]2O[C@H]2C[C@H]3O[C@H]4C/C=C\C[C@H]5O[C@H]6C=C[C@H]7O[C@H]8[C@H](O)[C@H]9O[C@@H](/C=C/[C@H](O)CO)C=CC[C@@H]9O[C@@H]8C[C@@H]7O[C@@H]6C=C[C@@H]5O[C@@H]4C[C@@H](O)[C@]3(C)O[C@@H]2C1 [ciguatoxin-1B],Ki,[1],0.041 nM
same,ki difference relative to BTX-1,[1]; ciguatoxin-1B vs BTX-1,more than 50 fold
"C=C(CO)CC1CC(O)C2(C)OC3CC4OC5CC6(C)OC7(C)CCC8OC9CC%10(C)OC%11C(C)=CC(=O)OC%11CC%10OC9CC(C)C8OC7CC6OC5(C)C/C=C\C4OC3CC2O1 (stereo not shown) [BTX-3, brevetoxin 3]",agonist profile on the channels (negative displacement in the activation voltage),[2],partial agonist
same,decrease in the maximum INa at −20 mV,[2],21.9 ± 10.9%
same,decrease of peak sodium current amplitude,[2],31.2 ± 15%
same,increased potency on the activation voltage after combination,[2],10 times
same,maximum INa at −20 mV,[2],−2887.70 ± 402.0 pA
same,IC50,"[2]; read-out: IC50, negative shift in the activation voltage",46.2 nM
same,IC50,"[2]; read-out: IC50, percent inhibition of the peak inward sodium currents (INa)",202 nM
same,IC50,[3],4700 nM
"CC1CC2OC3C(CC2OC2CC4OC5CC=CCC6OC7C=CC8OC9C(CC8OC7CC=CC6OC5CC(O)C4(C)OC2C1)OC1CC=CCOC1C9O)OC1C(C)C(C)C2(CCCO2)OC1C(O)C3C (stereo not shown) [CTX3C, ciguatoxin 3C]",agonist profile on the channels (negative displacement in the activation voltage),[2],full agonist
same,effect on maximum INa peak,[2]; 0.17 nM CTX3C,a decrease of the maximum INa peak was elicited
same,effect on the activation voltage,[2]; 0.17 nM CTX3C alone,no changes in the activation voltage were observed
same,+10 nM BTX-3 normalized INa (max),[2]; CTX3C 0.0001 nM in the presence of 10 nM BTX-3,–0.89 ± 0.08
same,+10 nM BTX-3 normalized INa (max),[2]; CTX3C 0.001 nM in the presence of 10 nM BTX-3,–0.89 ± 0.13
same,+10 nM BTX-3 normalized INa (max),[2]; CTX3C 0.01 nM in the presence of 10 nM BTX-3,–0.88 ± 0.13
same,+10 nM BTX-3 normalized INa (max),[2]; CTX3C 0.1 nM in the presence of 10 nM BTX-3,–0.90 ± 0.11
same,+10 nM BTX-3 normalized INa (max),[2]; CTX3C 1 nM in the presence of 10 nM BTX-3,–0.68 ± 0.09
same,+10 nM BTX-3 normalized INa (max),[2]; CTX3C 5 nM in the presence of 10 nM BTX-3,–0.46 ± 0.09
same,normalized INa (max),[2]; 0.0001 nM,–0.79 ± 0.05
same,normalized INa (max),[2]; 0.001 nM,–0.62 ± 0.08
same,normalized INa (max),[2]; 0.01 nM,–0.66 ± 0.09
same,normalized INa (max),[2]; 0.1 nM,–0.63 ± 0.09
same,normalized INa (max),[2]; 1 nM,–0.27 ± 0.07
same,normalized INa (max),[2]; 5 nM,–0.32 ± 0.04
same,activation voltage for CTX3C,[2]; [CTX3C] 0.0001 nM,–30.0 ± 0 mV
same,shift in the activation voltage for CTX3C,[2]; [CTX3C] 0.0001 nM,0.71 ± 5.4 mV
same,activation voltage for CTX3C,[2]; [CTX3C] 0.001 nM,–30.0 ± 0 mV
same,activation voltage for CTX3C,[2]; [CTX3C] 0.01 nM,–33.3 ± 3.3 mV
same,shift in the activation voltage for CTX3C,[2]; [CTX3C] 0.01 nM,–2.62 ± 5.6 mV
same,activation voltage for CTX3C,[2]; [CTX3C] 0.1 nM,–39.0 ± 1.8 mV
same,shift in the activation voltage for CTX3C,[2]; [CTX3C] 0.1 nM,–8.29 ± 3.3 mV
same,activation voltage for CTX3C,[2]; [CTX3C] 1 nM,–46.7 ± 2.9 mV
same,activation voltage for CTX3C,[2]; [CTX3C] 5 nM,–51.67 ± 4.8 mV
same,shift in the activation voltage for CTX3C,[2]; [CTX3C] 5 nM,–20.95 ± 4.8 mV
same,peak sodium current at −10 mV,"[2]; after bath application of 1 nM CTX3C, control −1156 ± 189 pA",−692 ± 372 pA
same,increased potency on the activation voltage after combination,[2]; combination of CTX3C and BTX-3 vs each alone,10 times
same,IC50,"[2]; single toxin alone, read-out: IC50, negative shift in the activation voltage",2.58 nM
same,IC50,"[2]; single toxin alone, read-out: IC50, percent inhibition of the peak inward sodium currents (INa)",0.173 nM
same,inactivation voltage for CTX3C (V1/2),[3]; [CTX3C] 0.001 nM,–50.1 ± 4.1 mV
same,inactivation voltage for CTX3C (V1/2),[3]; [CTX3C] 0.01 nM,–47.4 ± 1.4 mV
same,inactivation voltage for CTX3C (V1/2),[3]; [CTX3C] 0.1 nM,–53.4 ± 6.8 mV
same,inactivation voltage for CTX3C (V1/2),[3]; [CTX3C] 1 nM,–54.9 ± 5 mV
same,IC50,[3]; single toxin alone,306 nM
same,Ki,[1],0.47 nM
same,higher affinity than that of BTX-3s,"[1]; binding to VGSC, at concentrations of 1 nM of the compounds",20 fold
